Assay results reported in ChEMBL document CHEMBL3046101, “Synthesis and Biological Activity of 1,2-Dithiolanes and 1,2-Dithianes Bearing a Nitrogen-containing Substituent” (1992).

system: Tetranychus urticae; assay: Acaricidal activity against Tetranychus urticae (two-spotted spider mite) assessed as mortality at 500 ppm; format: functional

| SMILES | mortality at 500 ppm |
| --- | --- |
| CN(C)CC1CCCSS1.O=C(O)C(=O)O (stereo not drawn) | 20% |
| CN(C)CCC1CCSS1.O=C(O)C(=O)O (stereo not drawn) | 100% |
| CC(C)C1CSSC1 | 50% |
| CN(C)CCCC1CSSC1.O=C(O)C(=O)O | 100% |
| CC1CC(CN(C)C)SS1.O=C(O)C(=O)O (stereo not drawn) | 100% |
| CN1CCCCC1C1CSSC1.O=C(O)C(=O)O (stereo not drawn) | 100% |
| CN(C)C[C@H]1C[C@@H](CN(C)C)SS1.O=C(O)C(=O)O | 100% |
| CN(C)CC1CCC(CN(C)C)SS1.O=C(O)C(=O)O (stereo not drawn) | 100% |
| CN(C)CCC1CSSC1.O=C(O)C(=O)O | 100% |
| CN(C)CC1(C)CSSC1.O=C(O)C(=O)O | 90% |
| CN(C)C[C@H]1C[C@H](CN(C)C)SS1.O=C(O)C(=O)O (relative stereo) | 90% |
| CN(C)N(C)C1CSSC1.O=C(O)C(=O)O | 100% |
| CN(C)CC1CCSS1.O=C(O)C(=O)O (stereo not drawn) | 100% |
| CN(C)NC1CSSC1.O=C(O)C(=O)O | 100% |
| CN(C)CC1CSSC1.O=C(O)C(=O)O | 100% |
| CC1CSSC1CN(C)C.O=C(O)C(=O)O (stereo not drawn) | 100% |
| CN(C)C1CSSC1.O=C(O)C(=O)O [NEREISTOXIN HYDROGEN OXALATE] | 50% |
| O=C(O)C(=O)O.c1ccc(C2CSSC2)nc1 | 100% |
| O=C(O)C(=O)O.O=[N+]([O-])c1cccc2c1SSC2 | 100% |
| CN(C)CCCCC1CSSC1.O=C(O)C(=O)O | 100% |

system: Chilo suppressalis; assay: Insecticidal activity against Chilo suppressalis (rice stem borer) assessed as mortality compound administered as topical application; format: functional

| SMILES | LD50 |
| --- | --- |
| CN(C)CCC1CCSS1.O=C(O)C(=O)O (stereo not drawn) | 23.2 mg/kg |
| CN(C)CCC1CSSC1.O=C(O)C(=O)O | 28.1 mg/kg |
| CN(C)N(C)C1CSSC1.O=C(O)C(=O)O | 15 mg/kg |
| CN(C)CC1CCSS1.O=C(O)C(=O)O (stereo not drawn) | 4.3 mg/kg |
| CN(C)NC1CSSC1.O=C(O)C(=O)O | 36.2 mg/kg |
| CC1CSSC1CN(C)C.O=C(O)C(=O)O (stereo not drawn) | 50 mg/kg |
| CN(C)C1CSSC1.O=C(O)C(=O)O [NEREISTOXIN HYDROGEN OXALATE] | 1.7 mg/kg |

system: Spodoptera litura; assay: Insecticidal activity against Spodoptera litura assessed as mortality at 500 ppm; format: functional

| SMILES | mortality at 500 ppm |
| --- | --- |
| CN(C)CC1CCCSS1.O=C(O)C(=O)O (stereo not drawn) | 0% |
| CN(C)CCC1CCSS1.O=C(O)C(=O)O (stereo not drawn) | 0% |
| CC(C)C1CSSC1 | 20% |
| CN(C)CCCC1CSSC1.O=C(O)C(=O)O | 0% |
| CC1CC(CN(C)C)SS1.O=C(O)C(=O)O (stereo not drawn) | 20% |
| CN1CCCCC1C1CSSC1.O=C(O)C(=O)O (stereo not drawn) | 10% |
| CN(C)C[C@H]1C[C@@H](CN(C)C)SS1.O=C(O)C(=O)O | 30% |
| CN(C)CC1CCC(CN(C)C)SS1.O=C(O)C(=O)O (stereo not drawn) | 0% |
| CN(C)CCC1CSSC1.O=C(O)C(=O)O | 40% |
| CN(C)CC1(C)CSSC1.O=C(O)C(=O)O | 40% |
| CN(C)C[C@H]1C[C@H](CN(C)C)SS1.O=C(O)C(=O)O (relative stereo) | 0% |
| CN(C)N(C)C1CSSC1.O=C(O)C(=O)O | 0% |
| CN(C)CC1CCSS1.O=C(O)C(=O)O (stereo not drawn) | 30% |
| CN(C)NC1CSSC1.O=C(O)C(=O)O | 0% |
| CN(C)CC1CSSC1.O=C(O)C(=O)O | 90% |
| CC1CSSC1CN(C)C.O=C(O)C(=O)O (stereo not drawn) | 0% |
| CN(C)C1CSSC1.O=C(O)C(=O)O [NEREISTOXIN HYDROGEN OXALATE] | 30% |
| O=C(O)C(=O)O.c1ccc(C2CSSC2)nc1 | 0% |
| O=C(O)C(=O)O.O=[N+]([O-])c1cccc2c1SSC2 | 30% |
| CN(C)CCCCC1CSSC1.O=C(O)C(=O)O | 0% |

system: Tetranychus urticae; assay: Acaricidal activity against Tetranychus urticae (two-spotted spider mite) assessed as mortality; format: functional

| SMILES | LC50 |
| --- | --- |
| CN(C)CCC1CCSS1.O=C(O)C(=O)O (stereo not drawn) | 126 µg/mL |
| CN(C)C[C@H]1C[C@@H](CN(C)C)SS1.O=C(O)C(=O)O | 20 µg/mL |
| CN(C)C[C@H]1C[C@H](CN(C)C)SS1.O=C(O)C(=O)O (relative stereo) | 116 µg/mL |
| CN(C)CC1CSSC1.O=C(O)C(=O)O | 88 µg/mL |
| CC1CSSC1CN(C)C.O=C(O)C(=O)O (stereo not drawn) | 209 µg/mL |
| CN(C)C1CSSC1.O=C(O)C(=O)O [NEREISTOXIN HYDROGEN OXALATE] | 603 µg/mL |

system: Chilo suppressalis; assay: Insecticidal activity against Chilo suppressalis (rice stem borer) assessed as mortality at 50 ug/g administered as topical application; format: functional

| SMILES | mortality |
| --- | --- |
| CN(C)CC1CCCSS1.O=C(O)C(=O)O (stereo not drawn) | 0% |
| CN(C)CCC1CCSS1.O=C(O)C(=O)O (stereo not drawn) | 100% |
| CC(C)C1CSSC1 | 20% |
| CN(C)CCCC1CSSC1.O=C(O)C(=O)O | 60% |
| CC1CC(CN(C)C)SS1.O=C(O)C(=O)O (stereo not drawn) | 80% |
| CN1CCCCC1C1CSSC1.O=C(O)C(=O)O (stereo not drawn) | 70% |
| CN(C)C[C@H]1C[C@@H](CN(C)C)SS1.O=C(O)C(=O)O | 0% |
| CN(C)CC1CCC(CN(C)C)SS1.O=C(O)C(=O)O (stereo not drawn) | 0% |
| CN(C)CCC1CSSC1.O=C(O)C(=O)O | 100% |
| CN(C)CC1(C)CSSC1.O=C(O)C(=O)O | 70% |
| CN(C)C[C@H]1C[C@H](CN(C)C)SS1.O=C(O)C(=O)O (relative stereo) | 0% |
| CN(C)N(C)C1CSSC1.O=C(O)C(=O)O | 100% |
| CN(C)CC1CCSS1.O=C(O)C(=O)O (stereo not drawn) | 100% |
| CN(C)NC1CSSC1.O=C(O)C(=O)O | 100% |
| CN(C)CC1CSSC1.O=C(O)C(=O)O | 100% |
| CC1CSSC1CN(C)C.O=C(O)C(=O)O (stereo not drawn) | 80% |
| CN(C)C1CSSC1.O=C(O)C(=O)O [NEREISTOXIN HYDROGEN OXALATE] | 100% |
| O=C(O)C(=O)O.c1ccc(C2CSSC2)nc1 | 10% |
| O=C(O)C(=O)O.O=[N+]([O-])c1cccc2c1SSC2 | 10% |
| CN(C)CCCCC1CSSC1.O=C(O)C(=O)O | 0% |

system: Culex pipiens molestus; assay: Insecticidal activity against Culex pipiens molestus assessed as mortality at 5 ppm; format: functional

| SMILES | mortality at 5 ppm |
| --- | --- |
| CN(C)CC1CCCSS1.O=C(O)C(=O)O (stereo not drawn) | 0% |
| CN(C)CCC1CCSS1.O=C(O)C(=O)O (stereo not drawn) | 100% |
| CC(C)C1CSSC1 | 0% |
| CN(C)CCCC1CSSC1.O=C(O)C(=O)O | 40% |
| CC1CC(CN(C)C)SS1.O=C(O)C(=O)O (stereo not drawn) | 0% |
| CN1CCCCC1C1CSSC1.O=C(O)C(=O)O (stereo not drawn) | 95% |
| CN(C)C[C@H]1C[C@@H](CN(C)C)SS1.O=C(O)C(=O)O | 0% |
| CN(C)CC1CCC(CN(C)C)SS1.O=C(O)C(=O)O (stereo not drawn) | 0% |
| CN(C)CCC1CSSC1.O=C(O)C(=O)O | 95% |
| CN(C)CC1(C)CSSC1.O=C(O)C(=O)O | 100% |
| CN(C)C[C@H]1C[C@H](CN(C)C)SS1.O=C(O)C(=O)O (relative stereo) | 0% |
| CN(C)N(C)C1CSSC1.O=C(O)C(=O)O | 100% |
| CN(C)CC1CCSS1.O=C(O)C(=O)O (stereo not drawn) | 100% |
| CN(C)NC1CSSC1.O=C(O)C(=O)O | 25% |
| CN(C)CC1CSSC1.O=C(O)C(=O)O | 100% |
| CC1CSSC1CN(C)C.O=C(O)C(=O)O (stereo not drawn) | 0% |
| CN(C)C1CSSC1.O=C(O)C(=O)O [NEREISTOXIN HYDROGEN OXALATE] | 100% |
| O=C(O)C(=O)O.c1ccc(C2CSSC2)nc1 | 100% |
| O=C(O)C(=O)O.O=[N+]([O-])c1cccc2c1SSC2 | 95% |
| CN(C)CCCCC1CSSC1.O=C(O)C(=O)O | 75% |

system: Nilaparvata lugens; assay: Insecticidal activity against Nilaparvata lugens (brown planthopper) assessed as mortality at 50 ppm; format: functional

| SMILES | mortality at 50 ppm |
| --- | --- |
| CN(C)CC1CCCSS1.O=C(O)C(=O)O (stereo not drawn) | 50% |
| CN(C)CCC1CCSS1.O=C(O)C(=O)O (stereo not drawn) | 20% |
| CC(C)C1CSSC1 | 0% |
| CN(C)CCCC1CSSC1.O=C(O)C(=O)O | 10% |
| CC1CC(CN(C)C)SS1.O=C(O)C(=O)O (stereo not drawn) | 95% |
| CN1CCCCC1C1CSSC1.O=C(O)C(=O)O (stereo not drawn) | 100% |
| CN(C)C[C@H]1C[C@@H](CN(C)C)SS1.O=C(O)C(=O)O | 5% |
| CN(C)CC1CCC(CN(C)C)SS1.O=C(O)C(=O)O (stereo not drawn) | 0% |
| CN(C)CCC1CSSC1.O=C(O)C(=O)O | 100% |
| CN(C)CC1(C)CSSC1.O=C(O)C(=O)O | 100% |
| CN(C)C[C@H]1C[C@H](CN(C)C)SS1.O=C(O)C(=O)O (relative stereo) | 20% |
| CN(C)N(C)C1CSSC1.O=C(O)C(=O)O | 60% |
| CN(C)CC1CCSS1.O=C(O)C(=O)O (stereo not drawn) | 80% |
| CN(C)NC1CSSC1.O=C(O)C(=O)O | 45% |
| CN(C)CC1CSSC1.O=C(O)C(=O)O | 100% |
| CC1CSSC1CN(C)C.O=C(O)C(=O)O (stereo not drawn) | 75% |
| CN(C)C1CSSC1.O=C(O)C(=O)O [NEREISTOXIN HYDROGEN OXALATE] | 100% |
| O=C(O)C(=O)O.c1ccc(C2CSSC2)nc1 | 70% |
| O=C(O)C(=O)O.O=[N+]([O-])c1cccc2c1SSC2 | 80% |
| CN(C)CCCCC1CSSC1.O=C(O)C(=O)O | 20% |
